In patent US20220347305A1, “CONTROLLED RELEASE DRUG DIMERS” (Ripple Therapeutics Corporation, priority 2019, published 2022):

Key:
[1] = Drug release and erosion of Compound 1 heat-molded pellets in release buffer (PBS, 1% FBS in PBS, 100% FBS); assay type: physicochemical; conditions: 37° C., 115 rpm
Description: Heat-molded pellets from Compound 1 (˜1 mm×1 mm) were then placed in 20 mL glass vials and 2 mL of release buffer (either 100% phosphate buffered saline (PBS), 1% fetal bovine serum (FBS) in PBS, or 100% FBS) was added. Samples were incubated at 37° C. on a shaker rotating at 115 rpm. After 1 day, 3 days, 7 days, and subsequently in alternating 3 and 4 day intervals (i.e., 1, 3, 7, 10, 14 days etc.), release buffer was sampled directly (PBS) or syringe filtered, proteins were precipitated with acetonitrile, and drug release products were extracted. The samples were analyzed by high performance liquid chromatography (HPLC) to quantify drug products. Cumulative drug release was calculated and plotted as a percentage of the total drug in each pellet released over time (FIG. 1E).

[2] = Pellet formation by heat molding (heat processing of compounds); assay type: physicochemical; conditions: processed ~10-30° C. above Tg or Tm, pressed into cylindrical mold ~1 mm x 1 mm, light microscopy
Description: Crystalline powder was melted at 185° C. and pellets were formed from 1 mm×1 mm cylindrical molds. The starting powder and heat-processed pellets were tested by differential scanning calorimetry (DSC; FIG. 1C) and X-ray powder diffraction (XRPD; FIG. 1D) to confirm heat-processing converted Compound 1 from the crystalline state to the glassy state.
Compounds that were collected as stable powders and/or gums were investigated for pellet formation by heat molding. Compounds were processed at a temperature ˜10-30° C. above their corresponding thermal transitions (glass transition temperature (Tg) for gums or amorphous powders or melting point (Tm) for crystalline powders) and pressed into a cylindrical mold of ˜1 mm in height×1 mm in diameter. Light microscopy was used to capture images of the heat-formed pellets. Temperatures used to achieve a melt for heat molding were in a range from 70° C. to 220° C.

[3] = Drug release from heat-molded pellets in phosphate buffered saline; assay type: physicochemical; conditions: 37° C.; for Observation of pellet after 1-day incubation in release buffer: 4 mL PBS, shaker 115 rpm
Description: Drug release from heat-molded pellets of the compounds were assessed in phosphate buffered saline (PBS). Heat-molded pellets were placed in 20 ml glass vials and 2 ml of release buffer was added. Samples were incubated at 37° C. with constant agitation at 115 rpm. Release buffer was sampled and fully replaced with 2 ml of fresh buffer on days 1, 3, 7, 10, and 14. Samples were analyzed by high performance liquid chromatography (HPLC) to quantify drug products. Cumulative release was calculated as a percentage of total mass of starting pellets and was plotted over time.
Heat molded pellets of Compound 3, Compound 5, and Compound 8 were then placed in 20 mL glass vials and 4 mL of release buffer (phosphate buffered saline, PBS) was added. Samples were incubated at 37° C. on a shaker rotating at 115 rpm. […] Drug release from Compound 8 was assessed by HPLC from PBS release buffer weekly for 8 weeks with full buffer change at each time point.

Row | SMILES | melting point [°C] | Pellet formation by heat molding and handling properties of the pellet [2] | other results
1 | C[C@@H]1C[C@H]2[C@@H]3CCC4=CC(=O)C=C[C@]4(C)[C@@]3(F)[C@@H](O)C[C@]2(C)[C@@]1(O)C(=O)COC(=O)OCCOCCOCCOC(=O)OCC(=O)[C@@]1(O)[C@H](C)C[C@H]2[C@@H]3CCC4=CC(=O)C=C[C@]4(C)[C@@]3(F)[C@@H](O)C[C@@]21C [Compound 1, Dexamethasone-Triethylene Glycol-Dexamethasone] | – | formed into pellets in the glassy state | Erosion of pellets over time (representative images) [1]: surface erosion over time
2 | O=C(OCCCCCCCOC(=O)N1CCCN(S(=O)(=O)c2cccc3cnccc23)CC1)N1CCCN(S(=O)(=O)c2cccc3cnccc23)CC1 [Compound 3, heptane-1,7-diyl bis(4-(isoquinolin-5-ylsulfonyl)-1,4-diazepane-1-carboxylate)] | – | successfully formed glassy, mostly transparent pellets | Observation of pellet after 1-day incubation in release buffer [3]: pellet shape changed to a clear gel
3 | O=C(CCCCCCCCC(=O)N1CCCN(S(=O)(=O)c2cccc3cnccc23)CC1)N1CCCN(S(=O)(=O)c2cccc3cnccc23)CC1 [Compound 5, 1,10-bis(4-(isoquinolin-5-ylsulfonyl)-1,4-diazepan-1-yl)decane-1,10-dione] | – | successfully formed glassy, mostly transparent pellets | Observation of pellet after 1-day incubation in release buffer [3]: fragmented entirely to opaque particulates
4 | N[C@@H](Cc1ccc(O)c(O)c1)C(=O)OCC1CCC(COC(=O)[C@@H](N)Cc2ccc(O)c(O)c2)CC1 (stereo partly drawn) [Compound 6, cyclohexane-1,4-diylbis(methylene) (2S,2′S)-bis(2-amino-3-(3,4-dihydroxyphenyl)propanoate)] | 161 to 166 | – | –
5 | O=C(CCCCC(=O)Oc1ccc2c3c1O[C@H]1C(=O)CC[C@@]4(O)[C@@H](C2)N(CC2CC2)CC[C@]314)Oc1ccc2c3c1O[C@H]1C(=O)CC[C@@]4(O)[C@@H](C2)N(CC2CC2)CC[C@]314 [Compound 10, bis((4R,4aS,7aR,12bS)-3-(cyclopropylmethyl)-4a-hydroxy-7-oxo-2,3,4,4a,5,6,7,7a-octahydro-1H-4,12-methanobenzofuro[3,2-e]isoquinolin-9-yl) adipate] | – | didn't form a viscous liquid that could be pressed into a pellet | –
6 | O=C(Oc1ccc2c3c1O[C@H]1C(=O)CC[C@@]4(O)[C@@H](C2)N(CC2CC2)CC[C@]314)c1ccc(C(=O)Oc2ccc3c4c2O[C@H]2C(=O)CC[C@@]5(O)[C@@H](C3)N(CC3CC3)CC[C@]425)cc1 [Compound 16, bis((4R,4aS,7aR,12bS)-3-(cyclopropylmethyl)-4a-hydroxy-7-oxo-2,3,4,4a,5,6,7,7a-octahydro-1H-4,12-methanobenzofuro[3,2-e]isoquinolin-9-yl) terephthalate] | – | – | Pellet formation by heat molding and handling properties of the pellet ([2]; listed as Naltrexone-1,4-terephthalate-Naltrexone): did not form a heat processed pellet

Continued, in another order:

Row | melting point [°C] | SMILES | Pellet formation by heat molding and handling properties of the pellet [2] | other results
7 | 102 | COc1ccc2c(c1)c(CC(=O)OCCOCCOCCOC(=O)Cc1c(C)n(C(=O)c3ccc(Cl)cc3)c3ccc(OC)cc13)c(C)n2C(=O)c1ccc(Cl)cc1 [Compound 8, (ethane-1,2-diylbis(oxy))bis(ethane-2,1-diyl) bis(2-(1-(4-chlorobenzoyl)-5-methoxy-2-methyl-1H-indol-3-yl)acetate)] | formed opaque yellow-tinted pellets that could be handled | Drug release from pellet assessed by HPLC ([3]; PBS release buffer, weekly for 8 weeks with full buffer change): Minimal drug release
8 | 120 | C=CCN1CC[C@]23c4c5ccc(OC(=O)CCCCC(=O)Oc6ccc7c8c6O[C@H]6C(=O)CC[C@@]9(O)[C@@H](C7)N(CC=C)CC[C@]869)c4O[C@H]2C(=O)CC[C@@]3(O)[C@H]1C5 [Compound 9, bis((4R,4aS,7aR,12bS)-3-allyl-4a-hydroxy-7-oxo-2,3,4,4a,5,6,7,7a-octahydro-1H-4,12-methanobenzofuro[3,2-e]isoquinolin-9-yl) adipate] | – | –
